Literature values in patent US20210161950A1, “Veterinary Supplement for Effecting Bone and Cartilage” (priority 2017, published 2021).

Tests used:
osteoarthritis = settings: meta-analysis
[1] = test system: degenerated cartilage of the mandibular joint; settings: oral strontium

SMILES: N[C@H]1C(O)O[C@H](CO)[C@@H](O)[C@@H]1O (stereo partly drawn) [glucosamine]
- mobility of joints (osteoarthritis): Improves mobility of joints
- osteoarthritis progression (osteoarthritis): Reduces osteoarthritis progression
- pain (osteoarthritis): Reduces pain
- risk of total joint replacement (osteoarthritis): Reduces risk of total joint replacement
- new bone formation and osteoblast lining (bone fractures in rats; glucosamine-treated rats compared to control groups): significantly higher
- healing time of bone fractures (bone fractures in rats; rats): helped accelerate the healing time

SMILES: [Sr+2] [strontium]
- cartilage thickness and cell density [1]: increased cartilage thickness and cell density
- expression of cartilage catabolic factors and pro-inflammatory cytokines [1]: decreased expression
- expression of cartilage matrix molecules such as Collagen II and aggrecan [1]: increased expression
- subchondral bone loss and mandibular condylar cartilage degradation [1]: reversed

SMILES: N[C@H]1C(O)O[C@H](CO)[C@@H](O)[C@@H]1O.O=S(=O)(O)O (stereo partly drawn) [glucosamine sulfate]
- connective tissue surrounding bones (bone fractures in rats; rats, after 4 weeks of 230 milligrams glucosamine sulfate daily): more cellular and vascular
- strength of newly formed, previously fractured bones (bone fractures in rats; rats, after 4 weeks of 230 milligrams glucosamine sulfate daily, compared to controls): stronger compared to controls
